Measurements as given in paper PMC8617976, “Inhibitory Potential of New Phenolic Hydrazide-Hydrazones with a Decoy Substrate Fragment towards Laccase from a Phytopathogenic Fungus: SAR and Molecular Docking Studies” (International Journal of Molecular Sciences, 2021).

Assays:
[1] = biological target: T1, laccase from Trametes versicolor; experiment: syringaldazine oxidation at […] nm, Lineweaver-Burk; assay type: biochemical; conditions: McIlvaine buffer pH 5.3, 25 °C, 30 min preincubation, methanol co-solvent
T1 construct: gene LCC2; PDB 1GYC (laccase 2) used for docking only

[2] = biological target: T1, laccase from Trametes versicolor; experiment: syringaldazine oxidation at […] nm, Lineweaver-Burk; assay type: biochemical; conditions: McIlvaine buffer pH 5.3, 25 °C, 30 min preincubation, methanol co-solvent, printed as not active up to 1000 µM, type not determined
[3] = mixed type, non-competitive component

`COc1ccc(C(=O)N/N=C/c2cc(C)cc(C(C)(C)C)c2O)cc1` [4d, 4-Methoxy-N’-[(E)-(3-tert-butyl-2-hydroxy-5-methylphenyl)methylidene]benzohydrazide] was tested, and the Ki ([1]; competitive) was 25.8 µM.
`CC(C)(C)c1cc(/C=N/NC(=O)c2cccc(O)c2)c(O)c(C(C)(C)C)c1` [4h, 3-Hydroxy-N’-[(E)-(3,5-di-tert-butyl-2-hydroxyphenyl)methylidene]benzohydrazide] was tested, and the Ki ([1]; competitive) was 18.9 µM.
For `Cc1cc(/C=N/NC(=O)Cc2ccc(O)cc2)c(O)c(C(C)(C)C)c1` [3b, 2-(4-Hydroxyphenyl)-N’-[(E)-(3-tert-butyl-2-hydroxy-5-methylphenyl)methylidene]acetohydrazide], the Ki ([1]; uncompetitive, text b18 prints 49.1) was 49.2 µM.
For `O=C(N/N=C/c1cccc(-c2ccccc2)c1O)c1ccccc1O` [4m, 2-Hydroxy-N’-[(E)-(2-hydroxy-3-phenyl-phenyl)methylidene]benzohydrazide], the Ki ([1]; mixed type, competitive component) was 26.4 µM.
`O=C(N/N=C/c1cccc(-c2ccccc2)c1O)c1ccc2ccccc2c1O` [5b, N’-[(E)-(2-hydroxy-3-phenylphenyl)methylidene]-2-(1-hydroxynaphtho)hydrazide] was tested, and the Ki [1, 3] was 24.3 µM.
For `CC(C)(C)c1cccc(/C=N/NC(=O)c2cc(O)cc(O)c2)c1O` [4l, 3,5-Dihydroxy-N’-[(E)-(3-tert-butyl-2-hydroxyphenyl)methylidene]benzohydrazide], the Ki ([1]; competitive) was 38 µM.
For `CC(C)(C)c1cccc(/C=N/NC(=O)c2ccc3ccccc3c2O)c1O` [5d, N’-[(E)-(3-tert-butyl-2-hydroxy-phenyl)methylidene]-2-(1-hydroxynaphtho)hydrazide], the Ki [1, 3] was 55.6 µM.
`O=C(N/N=C/c1cccc(-c2ccccc2)c1O)c1cc(O)cc(O)c1` [4o, 3,5-Dihydroxy-N’-[(E)-(2-hydroxy-3-phenyl-phenyl)methylidene]benzohydrazide] gave a Ki ([1]; non-competitive) of 69.9 µM.
`CC(C)(C)c1cc(/C=N/NC(=O)c2ccc3ccccc3c2O)c(O)c(C(C)(C)C)c1` [5c, N’-[(E)-(3,5-di-tert-butyl-2-hydroxy-phenyl)methylidene]-2-(1-hydroxynaphtho)hydrazide monomethanolate] showed a Ki ([1]; non-competitive) of 16.2 µM.
Work on `CC(C)(C)c1cccc(/C=N/NC(=O)c2ccccc2O)c1O` [4j, 2-Hydroxy-N’-[(E)-(3-tert-butyl-2-hydroxyphenyl)methylidene]benzohydrazide] yielded a Ki ([1]; uncompetitive) of 65.6 µM.
In the case of `CC(C)(C)c1cc(/C=N/NC(=O)c2ccccc2O)c(O)c(C(C)(C)C)c1` [4g, 2-Hydroxy-N’-[(E)-(3,5-di-tert-butyl-2-hydroxyphenyl)methylidene]benzohydrazide], the Ki ([1]; non-competitive) is reported as 52.6 µM.
`COc1cccc(C(=O)N/N=C/c2cc(C)cc(C(C)(C)C)c2O)c1` [4c, 3-Methoxy-N’-[(E)-(3-tert-butyl-2-hydroxy-5-methylphenyl)methylidene]benzohydrazide] gave a Ki ([1]; non-competitive) of 17.4 µM.
In the case of `CC(=O)NN=Cc1cc(C)cc(C(C)(C)C)c1O` (mixture of isomers) [3a, (E/Z)-N’-(3-tert-butyl-2-hydroxy-5-methyl-benzylidene)acetohydrazide], the KI [2] is reported as greater than 1000 µM.
In the case of `Cc1cc(/C=N/NC(=O)c2ccccc2O)c(O)c(C(C)(C)C)c1` [4e, 2-Hydroxy-N’-[(E)-(3-tert-butyl-2-hydroxy-5-methylphenyl)methylidene]benzohydrazide], the Ki ([1]; uncompetitive) is reported as 150 µM.
For `Cc1cc(/C=N/NC(=O)c2ccc3ccccc3c2O)c(O)c(C(C)(C)C)c1` [5a, N’-[(E)-(3-tert-butyl-2-hydroxy-5-methylphenyl)methylidene]-2-(1-hydroxynaphtho)hydrazide], the Ki [1, 3] was 8 µM.
Compound `Cc1cc(/C=N/NC(=O)c2ccccc2)c(O)c(C(C)(C)C)c1` [4b, N’-[(E)-(3-tert-butyl-2-hydroxy-5-methylphenyl)methylidene]benzohydrazide] has a Ki ([1]; competitive) of 82 µM.
With `Cc1cc(/C=N/NC(=O)c2cc(O)cc(O)c2)c(O)c(C(C)(C)C)c1` [4f, 3,5-Dihydroxy-N’-[(E)-(3-tert-butyl-2-hydroxy-5-methylphenyl)methylidene]benzohydrazide] the Ki ([1]; competitive) was 32.3 µM.
For `CC(C)(C)c1cccc(/C=N/NC(=O)c2cccc(O)c2)c1O` [4k, 3-Hydroxy-N’-[(E)-(3-tert-butyl-2-hydroxyphenyl)methylidene]benzohydrazide], the Ki ([1]; competitive) was 35.8 µM.
Work on `CC(C)(C)c1cc(/C=N/NC(=O)c2cc(O)cc(O)c2)c(O)c(C(C)(C)C)c1` [4i, 3,5-Dihydroxy-N’-[(E)-(3,5-di-tert-butyl-2-hydroxyphenyl)methylidene]benzohydrazide] yielded a Ki ([1]; competitive) of 55.6 µM.
For `O=C(N/N=C/c1cccc(-c2ccccc2)c1O)c1cccc(O)c1` [4n, 3-Hydroxy-N’-[(E)-(2-hydroxy-3-phenyl-phenyl)methylidene]benzohydrazide], the Ki [1, 3] was 139 µM.
